Measured values: US12528814B2, “Bifunctional degraders of interleukin-1 receptor-associated kinases and therapeutic use thereof” (NURIX THERAPEUTICS, INC., priority 2020, dated 2026)
Like-named read-outs stand apart in the source and are kept apart here.

Experiments:
[1] = target: T1, IRAK4 (Homo sapiens (Human), UniProt Q9NWZ3); assay: IRAK4 Biochemical HTRF Kinase Assay; settings: read-out: IRAK4 HTRF biochemical: IC50
Method in brief: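 IC50 values derive from non-linear regression of sixteen concentrations in duplicate. Kinase reaction ran 90 min at ambient temperature after adding 5 μM STK-S1 substrate, 10 mM ATP and 10 mM MgCl2 (reaction-solution levels, pre-dilution to 10 μl); phospho-peptide detected by HTRF after 60 min.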
Target sequence in this assay (Q9NWZ3 whole entry, species assumed): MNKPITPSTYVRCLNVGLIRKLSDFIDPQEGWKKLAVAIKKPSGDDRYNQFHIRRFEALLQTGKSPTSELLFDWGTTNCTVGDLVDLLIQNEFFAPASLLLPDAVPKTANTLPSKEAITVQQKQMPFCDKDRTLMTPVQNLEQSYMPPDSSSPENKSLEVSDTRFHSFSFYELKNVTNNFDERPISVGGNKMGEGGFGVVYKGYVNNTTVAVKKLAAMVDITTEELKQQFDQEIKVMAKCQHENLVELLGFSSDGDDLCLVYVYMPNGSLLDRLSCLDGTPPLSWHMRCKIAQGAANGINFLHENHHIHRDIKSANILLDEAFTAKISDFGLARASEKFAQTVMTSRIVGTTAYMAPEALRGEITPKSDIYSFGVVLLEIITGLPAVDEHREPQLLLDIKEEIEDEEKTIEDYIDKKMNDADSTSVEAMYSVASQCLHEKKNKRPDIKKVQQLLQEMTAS

[2] = target: T1, IRAK4; assay: IRAK4 Degradation HiBiT Assay; settings: HiBiT-tagged Jurkat cells, 4 hrs; for Dmax: Jurkat; for DC50: read-out: Cellular IRAK4 HiBiT: DC50
Target sequence in this assay (Q9NWZ3 whole entry): as the sequence (Q9NWZ3 whole entry, species assumed) above

[3] = read-out: Cellular IRAK4 HiBiT: Dmax, Table 5, multiple runs
[4] = read-out: Cellular IRAK4 HiBiT: Dmax, Table 4

| Structure (SMILES) | IC50 ([1]; Table 5, multiple runs) | Dmax [2, 3] | DC50 ([2]; Table 5, multiple runs) | IC50 ([1]; Table 4) | Dmax [2, 4] | DC50 ([2]; Table 4) | Cellular IRAK4 HiBiT: Dmax ([2]; Table 5, multiple runs) |
| --- | --- | --- | --- | --- | --- | --- | --- |
| CC(C)Nc1cc(-c2ccc3cc(C#N)cnn23)ncc1-c1nnc(N2CCC3(CCN(C(=O)CNc4cccc5c4C(=O)N(C4CCC(=O)NC4=O)C5=O)CC3)CC2)s1 (stereo not drawn) [Example 82, 7-(5-(5-(9-((2-(2,6-dioxopiperidin-3-yl)-1,3-dioxoisoindolin-4-yl)glycyl)-3,9-diazaspiro[5.5]undecan-3-yl)-1,3,4-thiadiazol-2-yl)-4-(isopropylamino)pyridin-2-yl)pyrrolo[1,2-b]pyridazine-3-carbonitrile] | 3.1 nM | 61% | 72.8 nM | – | – | – | – |
| Cc1ncsc1-c1ccc([C@H](C)NC(=O)[C@@H]2C[C@@H](O)CN2C(=O)[C@@H](NC(=O)CCCCCCCCCC(=O)N2CCN(c3nnc(-c4cnc(-c5ccc6cc(C#N)cnn56)cc4NC(C)C)s3)CC2)C(C)(C)C)cc1 [Example 38, (2S,4R)-1-((S)-2-(11-(4-(5-(6-(3-cyanopyrrolo[1,2-b]pyridazin-7-yl)-4-(isopropylamino)pyridin-3-yl)-1,3,4-thiadiazol-2-yl)piperazin-1-yl)-11-oxoundecanamido)-3,3-dimethylbutanoyl)-4-hydroxy-N—((S)-1-(4-(4-methylthiazol-5-yl)phenyl)ethyl)pyrrolidine-2-carboxamide] | 10.4 nM | 34% | 128 nM | 10.4 nM | 34% | 128 nM | – |
| CC(C)Nc1cc(-c2ccc3cc(C#N)cnn23)ncc1-c1nnc(N2CCC(NC(=O)C3CCN(c4ccc5c(c4)C(=O)N(C4CCC(=O)NC4=O)C5=O)CC3)CC2)s1 (stereo not drawn) [Example 25, N-(1-(5-(6-(3-cyanopyrrolo[1,2-b]pyridazin-7-yl)-4-(isopropylamino)pyridin-3-yl)-1,3,4-thiadiazol-2-yl)piperidin-4-yl)-1-(2-(2,6-dioxopiperidin-3-yl)-1,3-dioxoisoindolin-5-yl)piperidine-4-carboxamide] | 7.8 nM | 77% | 160 nM | 7.8 nM | 69% | 188 nM | – |
| CNc1cc(-c2ccc3cc(C#N)cnn23)ncc1-c1nnc(N2CCCC3(CN(C(=O)C[C@H](NC(=O)[C@@H]4C[C@@H](O)CN4C(=O)[C@@H](NC(=O)C4(F)CC4)C(C)(C)C)c4ccc(-c5scnc5C)cc4)C3)C2)s1 [Example 150, (2S,4R)—N—((S)-3-(6-(5-(6-(3-cyanopyrrolo[1,2-b]pyridazin-7-yl)-4-(methylamino)pyridin-3-yl)-1,3,4-thiadiazol-2-yl)-2,6-diazaspiro[3.5]nonan-2-yl)-1-(4-(4-methylthiazol-5-yl)phenyl)-3-oxopropyl)-1-((S)-2-(1-fluorocyclopropane-1-carboxamido)-3,3-dimethylbutanoyl)-4-hydroxypyrrolidine-2-carboxamide] | 5.5 nM | 113% | 441 nM | – | – | – | – |
| CNc1cc(-c2ccc3cc(C#N)cnn23)ncc1-c1nnc(C23CCC(NC(=O)C[C@H](NC(=O)[C@@H]4C[C@@H](O)CN4C(=O)[C@@H](NC(=O)C4(F)CC4)C(C)(C)C)c4ccc(-c5scnc5C)cc4)(CC2)CC3)s1 [Example 140, (2S,4R)—N—((S)-3-((4-(5-(6-(3-cyanopyrrolo[1,2-b]pyridazin-7-yl)-4-(methylamino)pyridin-3-yl)-1,3,4-thiadiazol-2-yl)bicyclo[2.2.2]octan-1-yl)amino)-1-(4-(4-methylthiazol-5-yl)phenyl)-3-oxopropyl)-1-((S)-2-(1-fluorocyclopropane-1-carboxamido)-3,3-dimethylbutanoyl)-4-hydroxypyrrolidine-2-carboxamide] | 2.3 nM | 111% | 88.9 nM | – | – | – | – |
| CNc1cc(-c2ccc3cc(C#N)cnn23)ncc1-c1nnc(C23CCC(NC(=O)[C@H]4CC[C@H](C(=O)N[C@H](C(=O)N5C[C@H](O)C[C@H]5C(=O)NCc5ccc(-c6scnc6C)cc5)C(C)(C)C)CC4)(CC2)CC3)s1 [Example 130, (1S,4r)-N1-(4-(5-(6-(3-cyanopyrrolo[1,2-b]pyridazin-7-yl)-4-(methylamino)pyridin-3-yl)-1,3,4-thiadiazol-2-yl)bicyclo[2.2.2]octan-1-yl)-N4—((S)-1-((2S,4R)-4-hydroxy-2-((4-(4-methylthiazol-5-yl)benzyl)carbamoyl)pyrrolidin-1-yl)-3,3-dimethyl-1-oxobutan-2-yl)cyclohexane-1,4-dicarboxamide] | 1.8 nM | – | 126 nM | – | – | – | 110% |
| CNc1cc(-c2ccc3cc(C#N)cnn23)ncc1-c1nnc([C@H]2CC[C@H](NC(=O)C3CCN(c4cccc5c4C(=O)N(C4CCC(=O)NC4=O)C5=O)CC3)CC2)s1 (stereo partly drawn) [Example 139, N-((1r,4r)-4-(5-(6-(3-cyanopyrrolo[1,2-b]pyridazin-7-yl)-4-(methylamino)pyridin-3-yl)-1,3,4-thiadiazol-2-yl)cyclohexyl)-1-(2-(2,6-dioxopiperidin-3-yl)-1,3-dioxoisoindolin-4-yl)piperidine-4-carboxamide] | 0.9 nM | 24% | 10.6 nM | – | – | – | – |

The next lines start with results.

| IC50 ([1]; Table 5, multiple runs) | Dmax [2, 3] | DC50 ([2]; Table 5, multiple runs) | IC50 ([1]; Table 4) | Dmax [2, 4] | DC50 ([2]; Table 4) | Structure (SMILES) | Cellular IRAK4 HiBiT: Dmax ([2]; Table 5, multiple runs) |
| --- | --- | --- | --- | --- | --- | --- | --- |
| 1.5 nM | 108% | 57 nM | 1.5 nM | 97% | 184 nM | CC(C)Nc1cc(-c2ccc3cc(C#N)cnn23)ncc1-c1nnc(N2CCN(C(=O)C3CCN(c4ccc5c(c4)C(=O)N(C4CCC(=O)NC4=O)C5=O)CC3)CC2)s1 (stereo not drawn) [Example 23, 7-{5-[5-(4-{1-[2-(2,6-dioxopiperidin-3-yl)-1,3-dioxo-2,3-dihydro-1H-isoindol-5-yl]piperidine-4-carbonyl}piperazin-1-yl)-1,3,4-thiadiazol-2-yl]-4-[(propan-2-yl)amino]pyridin-2-yl}pyrrolo[1,2-b]pyridazine-3-carbonitrile] | – |
| 6.6 nM | 45% | 937 nM | 6.6 nM | 45% | 934 nM | CN[C@@H](C)C(=O)N[C@H](C(=O)N1CCC[C@H]1c1nc(C(=O)c2cccc(OCCOCCOCCOCCC(=O)N3CCN(c4nnc(-c5cnc(-c6ccc7cc(C#N)cnn67)cc5NC(C)C)s4)CC3)c2)cs1)C1CCCCC1 [Example 55, (S)—N—((S)-2-((S)-2-(4-(3-(2-(2-(2-(3-(4-(5-(6-(3-cyanopyrrolo[1,2-b]pyridazin-7-yl)-4-(isopropylamino)pyridin-3-yl)-1,3,4-thiadiazol-2-yl)piperazin-1-yl)-3-oxopropoxy)ethoxy)ethoxy)ethoxy)benzoyl)thiazol-2-yl)pyrrolidin-1-yl)-1-cyclohexyl-2-oxoethyl)-2-(methylamino)propanamide] | – |
| 1.3 nM | 90% | 905 nM | – | – | – | CNc1cc(-c2ccc3cc(C#N)cnn23)ncc1-c1nnc(N2CCN(C(=O)COc3cc(-c4scnc4C)ccc3CNC(=O)[C@@H]3C[C@@H](O)CN3C(=O)[C@@H](NC(=O)C3(F)CC3)C(C)(C)C)CC2)s1 [Example 96, (2S,4R)—N-(2-(2-(4-(5-(6-(3-cyanopyrrolo[1,2-b]pyridazin-7-yl)-4-(methylamino)pyridin-3-yl)-1,3,4-thiadiazol-2-yl)piperazin-1-yl)-2-oxoethoxy)-4-(4-methylthiazol-5-yl)benzyl)-1-((S)-2-(1-fluorocyclopropane-1-carboxamido)-3,3-dimethylbutanoyl)-4-hydroxypyrrolidine-2-carboxamide] | – |
| 0.3 nM | 62% | 192 nM | – | – | – | CNc1cc(-c2ccc3cc(C#N)cnn23)ncc1-c1nnc([C@H]2CC[C@H](N(C)CC3CCN(c4ccc(C(=O)N(C)C5CCC(=O)NC5=O)cc4)CC3)CC2)s1 (stereo partly drawn) [Example 189, 4-(4-((((1r,4r)-4-(5-(6-(3-cyanopyrrolo[1,2-b]pyridazin-7-yl)-4-(methylamino)pyridin-3-yl)-1,3,4-thiadiazol-2-yl)cyclohexyl)(methyl)amino)methyl)piperidin-1-yl)-N-(2,6-dioxopiperidin-3-yl)-N-methylbenzamide] | – |
| 1.1 nM | 90% | 136 nM | 0.8 nM | 90% | 135 nM | CC(C)Nc1cc(-c2ccc3cc(C#N)cnn23)ncc1-c1nnc(N2CCN(CCCc3cccc4c3CN(C3CCC(=O)NC3=O)C4=O)CC2)s1 (stereo not drawn) [Example 29, 7-(5-(5-(4-(3-(2-(2,6-dioxopiperidin-3-yl)-1-oxoisoindolin-4-yl)propyl)piperazin-1-yl)-1,3,4-thiadiazol-2-yl)-4-(isopropylamino)pyridin-2-yl)pyrrolo[1,2-b]pyridazine-3-carbonitrile] | – |
| 4.8 nM | 59% | 265 nM | – | – | – | CNc1cc(-c2ccc3cc(C#N)cnn23)ncc1-c1nnc(N2CCC(NC(=O)COc3cc(-c4scnc4C)ccc3CNC(=O)[C@@H]3C[C@@H](O)CN3C(=O)[C@@H](NC(=O)C3(F)CC3)C(C)(C)C)CC2)s1 [Example 97, (2S,4R)—N-(2-(2-((1-(5-(6-(3-cyanopyrrolo[1,2-b]pyridazin-7-yl)-4-(methylamino)pyridin-3-yl)-1,3,4-thiadiazol-2-yl)piperidin-4-yl)amino)-2-oxoethoxy)-4-(4-methylthiazol-5-yl)benzyl)-1-((S)-2-(1-fluorocyclopropane-1-carboxamido)-3,3-dimethylbutanoyl)-4-hydroxypyrrolidine-2-carboxamide] | – |
| 0.5 nM | 70% | 53.1 nM | 0.4 nM | 70% | 53 nM | CC(C)Nc1cc(-c2ccc3cc(C#N)cnn23)ncc1-c1nnc(N2CCN(CCCCc3cccc4c3CN(C3CCC(=O)NC3=O)C4=O)CC2)s1 (stereo not drawn) [Example 28, 7-(5-(5-(4-(4-(2-(2,6-dioxopiperidin-3-yl)-1-oxoisoindolin-4-yl)butyl)piperazin-1-yl)-1,3,4-thiadiazol-2-yl)-4-(isopropylamino)pyridin-2-yl)pyrrolo[1,2-b]pyridazine-3-carbonitrile] | – |
